Test results from patent US20100086931A1, “METHOD FOR ASSAYING ACTION OF ANTITUMOR AGENT USING DECREASE IN GENE EXPRESSION LEVEL AS INDEX” (Eisai R&D Management Co., Ltd., priority 2007, published 2010).

Test system: peripheral blood mononuclear cells (PBMC)
Test: Microarray analysis (Human Genome U133 plus 2.0 array) of mRNA expression in PBMC treated with compound A
Type: cell-based
Settings: 100 nM, ratio to control
Description: Since it is not easy to obtain a cancer tissue clinically, the measurement of the marker in hemocytes readily obtainable in peripheral blood would be more useful. Specifically blood was taken from a normal individual (volunteer) and peripheral blood mononuclear cells were purified and treated with compound A, followed by measurement of change in expression of the gene (mRNA) with the microarray (Human Genome […] plus 2.0 array: Affymetrix).
Ficoll-Paque PLUS solution (Amersham, 17-1440-02) was slowly added to the blood taken (with heparin added) from a healthy individual to form a layer underneath the blood (15 ml of Ficoll-Paque PLUS solution was added to 25 ml of blood). After the mixture was centrifuged at 1500 rpm for 30 min, the upper part containing platelets was removed and then a layer containing mononuclear cells was transferred to another tube. The cells were suspended in PBS and centrifuged at 1500 rpm for 5 min, followed by removal of the supernatant. After these steps were repeated twice, the cells were again suspended in RPMI1640 (containing 10% FBS). The number of the cells was then counted.
The cells were suspended in the medium to 5×10^6 cells/ml and plated 1 ml per well of a 24-well plate. Immediately, 111 μl of compound A (ten times more concentrated than the final concentrations) was added to the well (four wells per each concentration tested). The cells were then cultured in an incubator with 5% carbon dioxide gas at 37° C. Two or four hours later, the supernatant was collected and centrifuged at 1500 rpm for five minutes. TRI reagent (SIGMA) (1 ml) was added to each well of the plate from which the supernatant was removed to harvest the cells, which was added to the centrifuged pellet to dissolve. RNA was purified in accordance with the protocol of TRI reagent. RNA was further purified using RNeasy (QIAGEN). Absorbance at 260 nm was measured to quantify an amount of RNA.
A .cel file for each sample was obtained by using GeneChip Operating Software Ver.1.2 (Affymetrix). The RMA method was applied to ten of the .cel files obtained in the microarray experiment. Log signal intensity at a gene level was obtained by normalization of that at a probe level. By subtracting a control value from log signal intensity for each case, the log signal intensity was converted into a log signal ratio to the control. Genes were narrowed down in the basis of a log signal ratio, and a signal value. Specifically, among genes showing that the P value was 5% or less; the expression level in the untreated (control) is 100 or more by signal value; and the expression level when treated with 10 nM of compound A both for two and four hours decreased by 50% or more, genes of which expression level decreased to 25% or less upon the two-hour treatment were picked out. The software used is R2.2.1 (http://www.r-project.org/), affy package 1.8.1 (http://www.bioconductor.org).
Among genes showing, upon the treatment with compound A, that the P value was 5% or less; the expression level in the untreated (control) is 100 or more by signal value; and the expression level when treated with 10 nM of compound A both for two and four hours decreased by 50% or more, genes of which expression level decreased to 25% or less upon the two-hour treatment, and results thereof were shown in Table 2. For each gene evaluated, gene name (Gene Name), abbreviated name (Gene Symbol), accession number (Accession), alias name (Synonym), Probe set number in Human Genome U133 Plus 2.0 Array (Human Genome U133 Plus 2.0 Array Probeset ID), the expression level upon the two-hour treatment with E7107 (E7107 (2 h)), and the expression level upon the four-hour treatment with E7107 (E7107 (4 h)) were respectively shown in Table 2.

SMILES: CCC(O)C(C)C1OC1CC(C)(O)/C=C/C=C(\C)C1OC(=O)CC(O)CCC(C)(O)C(OC(=O)N2CCN(C3CCCCCC3)CC2)/C=C/C1C (stereo not drawn) [E7107, (8E,12E,14E)-7-((4-Cycloheptylpiperazin-1-yl)carbonyl)oxy-3,6,16,21-tetrahydroxy-6,10,12,16,20-pentamethyl-18,19-epoxytricosa-8,12,14-trien-11-olide]
- AHSA2 mRNA expression level (226665_at) (2 h): 0.20
- ATXN1 mRNA expression level (242230_at) (2 h): 0.25
- C13orf31 mRNA expression level (228937_at) (2 h): 0.04
- C15orf48 mRNA expression level (223484_at) (2 h): 0.02
- CCRL2//LOC642312 mRNA expression level (211434_s_at) (2 h): 0.22
- CLEC5A mRNA expression level (219890_at) (2 h): 0.08
- CSF2RA mRNA expression level (210340_s_at) (2 h): 0.08
- CTSL1 mRNA expression level (202087_s_at) (2 h): 0.20
- DHRS9 mRNA expression level (223952_x_at) (2 h): 0.18
- DOK3 mRNA expression level (223553_s_at) (2 h): 0.30
- FPRL2 mRNA expression level (230422_at) (2 h): 0.05
- GNA15 mRNA expression level (205349_at) (2 h): 0.11
- GPR84 mRNA expression level (223767_at) (2 h): 0.19
- GTF2H1 mRNA expression level (202451_at) (2 h): 0.07
- HNRPA2B1 mRNA expression level (225107_at) (2 h): 0.07
- HPSE mRNA expression level (222881_at) (2 h): 0.13
- IQCG mRNA expression level (235347_at) (2 h): 0.08
- LOC51315 mRNA expression level (233329_s_at) (2 h): 0.11
- MS4A7 mRNA expression level (224358_s_at) (2 h): 0.22
- NLRP12 mRNA expression level (1554952_s_at) (2 h): 0.24
- NRIP3 mRNA expression level (219557_s_at) (2 h): 0.11
- NSMCE4A mRNA expression level (228506_at) (2 h): 0.19
- OLR1 mRNA expression level (210004_at) (2 h): 0.01
- RAPH1 mRNA expression level (225188_at) (2 h): 0.05
- RBBP6 mRNA expression level (212781_at) (2 h): 0.12
- SLC25A19 mRNA expression level (223222_at) (2 h): 0.17
- SLC43A2 mRNA expression level (228918_at) (2 h): 0.17
- TNFAIP6 mRNA expression level (206026_s_at) (2 h): 0.07
- TNS1 mRNA expression level (221748_s_at) (2 h): 0.09
- TRAPPC4 mRNA expression level (217959_s_at) (2 h): 0.08
- Transcribed locus mRNA expression level (230098_at) (2 h): 0.08
- WSB1 mRNA expression level (201294_s_at) (2 h): 0.29
- ZCCHC6 mRNA expression level (220933_s_at) (2 h): 0.14
- AHSA2 mRNA expression level (226665_at) (4 h): 0.23
- ATXN1 mRNA expression level (242230_at) (4 h): 0.13
- C13orf31 mRNA expression level (228937_at) (4 h): 0.06
- C15orf48 mRNA expression level (223484_at) (4 h): 0.01
- CCRL2//LOC642312 mRNA expression level (211434_s_at) (4 h): 0.29
- CLEC5A mRNA expression level (219890_at) (4 h): 0.01
- CSF2RA mRNA expression level (210340_s_at) (4 h): 0.10
- CTSL1 mRNA expression level (202087_s_at) (4 h): 0.13
- DHRS9 mRNA expression level (223952_x_at) (4 h): 0.12
- DOK3 mRNA expression level (223553_s_at) (4 h): 0.35
- FPRL2 mRNA expression level (230422_at) (4 h): 0.02
- GNA15 mRNA expression level (205349_at) (4 h): 0.15
- GPR84 mRNA expression level (223767_at) (4 h): 0.38
- GTF2H1 mRNA expression level (202451_at) (4 h): 0.02
- HNRPA2B1 mRNA expression level (225107_at) (4 h): 0.10
- HPSE mRNA expression level (222881_at) (4 h): 0.11
- IQCG mRNA expression level (235347_at) (4 h): 0.05
- LOC51315 mRNA expression level (233329_s_at) (4 h): 0.06
- MS4A7 mRNA expression level (224358_s_at) (4 h): 0.03
- NLRP12 mRNA expression level (1554952_s_at) (4 h): 0.20
- NRIP3 mRNA expression level (219557_s_at) (4 h): 0.24
- NSMCE4A mRNA expression level (228506_at) (4 h): 0.19
- OLR1 mRNA expression level (210004_at) (4 h): 0.00
- RAPH1 mRNA expression level (225188_at) (4 h): 0.10
- RBBP6 mRNA expression level (212781_at) (4 h): 0.17
- SLC25A19 mRNA expression level (223222_at) (4 h): 0.18
- SLC43A2 mRNA expression level (228918_at) (4 h): 0.08
- TNFAIP6 mRNA expression level (206026_s_at) (4 h): 0.02
- TNS1 mRNA expression level (221748_s_at) (4 h): 0.06
- TRAPPC4 mRNA expression level (217959_s_at) (4 h): 0.04
- Transcribed locus mRNA expression level (230098_at) (4 h): 0.08
- WSB1 mRNA expression level (201294_s_at) (4 h): 0.25
- ZCCHC6 mRNA expression level (220933_s_at) (4 h): 0.06
